In PubChem BioAssay (NCI):
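Step 1: Grow cells in 96-well plates. Step 2: Expose to compound for 48 hours at 5 concentrations. Step 3: Interpolate endpoints linearly; if unreached, use highest concentration. GI50 is the concentration that inhibits growth by half. TGI marks complete inhibition of growth.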

Tests used:
Experiment in all cases: NCI-60 cell line screen, 48 h
[1] = system: HOP-62 NSCLC
[2] = system: SK-OV-3 ovarian
[3] = system: SNB-19 CNS
[4] = system: HS 578T breast
[5] = system: A498 renal
[6] = system: 786-0 renal
[7] = system: CCRF-CEM leukemia
[8] = system: SF-295 CNS
[9] = system: RPMI-8226 leukemia
[10] = system: K-562 leukemia
[11] = system: SR leukemia
[12] = system: U251 CNS
[13] = system: ACHN renal
[14] = system: PC-3 prostate
[15] = system: BT-549 breast
[16] = system: SK-MEL-2 melanoma
[17] = system: DU-145 prostate
[18] = system: HCT-116 colon
[19] = system: SNB-75 CNS
[20] = system: UACC-257 melanoma
[21] = system: MALME-3M melanoma
[22] = system: RXF 393 renal
[23] = system: HOP-92 NSCLC
[24] = system: MDA-MB-435
[25] = system: COLO 205 colon
[26] = system: SF-539 CNS
[27] = system: UO-31 renal
[28] = system: M14 melanoma
[29] = system: SK-MEL-5 melanoma
[30] = system: OVCAR-4 ovarian
[31] = system: KM12 colon
[32] = system: NCI-H23 lung
[33] = system: HCT-15 colon
[34] = system: MCF7 breast
[35] = system: HT29 colon
[36] = system: SF-268 CNS
[37] = system: A549 NSCLC
[38] = system: NCI-H460 lung
[39] = system: SW-620 colon
[40] = system: NCI/ADR-RES ovarian
[41] = system: SK-MEL-28 melanoma
[42] = system: NCI-H226 lung
[43] = system: NCI-H522 lung
[44] = system: SN12C renal
[45] = system: CAKI-1 renal
[46] = system: EKVX NSCLC
[47] = system: IGROV1 ovarian
[48] = system: HCC-2998 colon
[49] = system: OVCAR-5 ovarian
[50] = system: MOLT-4 leukemia
[51] = system: OVCAR-8 ovarian
[52] = system: TK-10 renal
[53] = system: HL-60(TB) leukemia
[54] = system: LOX IMVI melanoma
[55] = system: MDA-MB-231 breast
[56] = system: UACC-62 melanoma
[57] = system: T-47D breast

NC(=O)c1c(NC(=O)c2cccc(C(F)(F)F)c2F)sc2c1CCC(=O)C2
GI50 [1]: 6690 nM
TGI [1]: > 100000 nM
GI50 [2]: > 100000 nM
TGI [2]: > 100000 nM
GI50 [3]: 577 nM
TGI [3]: > 100000 nM
GI50 [4]: 831 nM
TGI [4]: > 100000 nM
GI50 [5]: > 100000 nM
TGI [5]: > 100000 nM
GI50 [6]: 2200 nM
TGI [6]: > 100000 nM
GI50 [7]: 212 nM
TGI [7]: > 100000 nM
GI50 [8]: 3090 nM
TGI [8]: > 100000 nM
GI50 [9]: 231 nM
GI50 [10]: 231 nM
TGI [10]: > 100000 nM
GI50 [11]: 326 nM
TGI [11]: > 100000 nM
GI50 [12]: 315 nM
TGI [12]: > 100000 nM
GI50 [13]: 337 nM
TGI [13]: > 100000 nM
GI50 [14]: 270 nM
TGI [14]: > 100000 nM
GI50 [15]: 327 nM
TGI [15]: > 100000 nM
GI50 [16]: > 100000 nM
TGI [16]: > 100000 nM
GI50 [17]: > 100000 nM
TGI [17]: > 100000 nM
GI50 [18]: 306 nM
TGI [18]: > 100000 nM
GI50 [19]: 2160 nM
TGI [19]: 39100 nM

CCCCCc1ccc(S(=O)(=O)Nc2cccc(-c3csc(NCCN4CCN(C)CC4)n3)c2)cc1
GI50 [20]: 1730 nM
TGI [20]: 3270 nM
GI50 [1]: 1730 nM
TGI [1]: 3320 nM
GI50 [21]: 1540 nM
TGI [21]: 2990 nM
GI50 [22]: 1410 nM
TGI [22]: 2900 nM
GI50 [23]: 1280 nM
TGI [23]: 2730 nM
GI50 [2]: 1750 nM
TGI [2]: 3350 nM
GI50 [24]: 1700 nM
TGI [24]: 3300 nM
GI50 [3]: 1960 nM
TGI [3]: 4050 nM
GI50 [25]: 1640 nM
TGI [25]: 3160 nM
GI50 [4]: 1830 nM
TGI [4]: 4220 nM
GI50 [5]: 1530 nM
TGI [5]: 3120 nM
GI50 [26]: 1700 nM
TGI [26]: 3110 nM
GI50 [27]: 1420 nM
TGI [27]: 2940 nM
GI50 [6]: 1670 nM
TGI [6]: 3080 nM
GI50 [28]: 1770 nM
TGI [28]: 3420 nM
GI50 [29]: 1780 nM
TGI [29]: 3190 nM
GI50 [30]: 2020 nM
TGI [30]: 5180 nM
GI50 [31]: 1720 nM
TGI [31]: 3220 nM
GI50 [32]: 1810 nM
TGI [32]: 3620 nM
GI50 [7]: 2590 nM
TGI [7]: 9630 nM
GI50 [33]: 1680 nM
TGI [33]: 3310 nM
GI50 [34]: 1690 nM
TGI [34]: 3330 nM
GI50 [35]: 1900 nM
TGI [35]: 3710 nM
GI50 [36]: 1760 nM
TGI [36]: 3630 nM
GI50 [37]: 1720 nM
TGI [37]: 3300 nM
GI50 [38]: 1780 nM
TGI [38]: 3290 nM
GI50 [39]: 1660 nM
TGI [39]: 3120 nM
GI50 [40]: 1840 nM
TGI [40]: 4250 nM
GI50 [41]: 1870 nM
TGI [41]: 3360 nM
GI50 [42]: 1850 nM
TGI [42]: 3930 nM
GI50 [43]: 1800 nM
TGI [43]: 3430 nM
GI50 [44]: 2010 nM
TGI [44]: 4480 nM
GI50 [8]: 1860 nM
TGI [8]: 3540 nM
GI50 [10]: 3020 nM
TGI [10]: > 100000 nM
GI50 [11]: 2470 nM
TGI [11]: > 100000 nM
GI50 [12]: 1700 nM
TGI [12]: 3230 nM
GI50 [45]: 1520 nM
TGI [45]: 3190 nM
GI50 [46]: 1670 nM
TGI [46]: 3610 nM
GI50 [13]: 1750 nM
TGI [13]: 3240 nM
GI50 [47]: 1630 nM
TGI [47]: 3180 nM
GI50 [14]: 1860 nM
TGI [14]: 4420 nM
GI50 [48]: 1750 nM
TGI [48]: 3240 nM
GI50 [15]: 1560 nM
TGI [15]: 2970 nM
GI50 [16]: 1760 nM
TGI [16]: 3330 nM
GI50 [17]: 1960 nM
TGI [17]: 3920 nM
GI50 [49]: 1890 nM
TGI [49]: 4010 nM
GI50 [50]: 3360 nM
TGI [50]: 14600 nM
GI50 [51]: 1840 nM
TGI [51]: 3500 nM
GI50 [52]: 1800 nM
TGI [52]: 3610 nM
GI50 [53]: 2310 nM
TGI [53]: 5340 nM
GI50 [54]: 1690 nM
TGI [54]: 3130 nM
GI50 [55]: 1630 nM
TGI [55]: 3300 nM
GI50 [56]: 1820 nM
TGI [56]: 3470 nM
GI50 [19]: 1390 nM
TGI [19]: 2890 nM

CC(C)(C)c1cc(NC(=O)Nc2ccc(-c3cn4c5c(sc4n3)CCc3c[nH]cc3-5)cc2)no1
GI50 [20]: 2310 nM
TGI [20]: 13900 nM
GI50 [1]: 1150 nM
TGI [1]: 2740 nM
GI50 [21]: 1440 nM
TGI [21]: 4060 nM
GI50 [22]: 333 nM
TGI [22]: 1800 nM
GI50 [23]: 1060 nM
TGI [23]: 3670 nM
GI50 [2]: 2120 nM
TGI [2]: 31300 nM
GI50 [24]: 1970 nM
TGI [24]: > 50000 nM
GI50 [3]: 1580 nM
TGI [3]: > 50000 nM
GI50 [25]: 1000 nM
TGI [25]: 2230 nM
GI50 [4]: 950 nM
TGI [4]: 2940 nM
GI50 [5]: 1040 nM
TGI [5]: 2620 nM
GI50 [26]: 875 nM
TGI [26]: 4170 nM
GI50 [27]: 1330 nM
TGI [27]: 3900 nM
GI50 [6]: 754 nM
TGI [6]: 2100 nM
GI50 [28]: 1450 nM
TGI [28]: 4900 nM
GI50 [29]: 1020 nM
TGI [29]: 2110 nM
GI50 [30]: 2620 nM
TGI [30]: > 50000 nM
GI50 [31]: 1550 nM
TGI [31]: 6100 nM
GI50 [32]: 1420 nM
TGI [32]: 4870 nM
GI50 [7]: 1790 nM
TGI [7]: > 50000 nM
GI50 [33]: 1190 nM
TGI [33]: 4280 nM
GI50 [34]: 1080 nM
TGI [34]: 3120 nM
GI50 [35]: 949 nM
TGI [35]: 1920 nM
GI50 [36]: 1920 nM
TGI [36]: 16500 nM
GI50 [37]: 2020 nM
TGI [37]: > 50000 nM
GI50 [38]: 1570 nM
TGI [38]: 5340 nM
GI50 [39]: 2130 nM
TGI [39]: 15000 nM
GI50 [40]: 1890 nM
TGI [40]: > 50000 nM
GI50 [41]: 1540 nM
TGI [41]: 9500 nM
GI50 [42]: 2280 nM
TGI [42]: > 50000 nM
GI50 [43]: 1690 nM
TGI [43]: 6700 nM
GI50 [44]: 3000 nM
TGI [44]: > 50000 nM
GI50 [8]: 738 nM
TGI [8]: 1740 nM
GI50 [9]: 1080 nM
TGI [9]: 4140 nM
GI50 [10]: 1240 nM
TGI [10]: > 50000 nM
GI50 [12]: 738 nM
TGI [12]: 3780 nM
GI50 [45]: 1490 nM
TGI [45]: > 50000 nM
GI50 [46]: 2050 nM
TGI [46]: > 50000 nM
GI50 [13]: 1980 nM
TGI [13]: > 50000 nM
GI50 [47]: 2360 nM
TGI [47]: > 50000 nM
GI50 [14]: 1540 nM
TGI [14]: > 50000 nM
GI50 [57]: 1190 nM
TGI [57]: 3750 nM
GI50 [48]: 1680 nM
TGI [48]: 7490 nM
GI50 [15]: 1310 nM
TGI [15]: 4220 nM
GI50 [16]: 1240 nM
TGI [16]: 3150 nM
GI50 [17]: 2310 nM
TGI [17]: > 50000 nM
GI50 [49]: 2960 nM
TGI [49]: > 50000 nM
GI50 [50]: 1260 nM
TGI [50]: > 50000 nM
GI50 [51]: 2480 nM
TGI [51]: > 50000 nM
GI50 [52]: 3410 nM
TGI [52]: > 50000 nM
GI50 [18]: 1700 nM
TGI [18]: 12500 nM
GI50 [53]: 1510 nM
TGI [53]: > 50000 nM
GI50 [54]: 1300 nM
TGI [54]: 3230 nM
GI50 [55]: 2000 nM
TGI [55]: 18100 nM
GI50 [56]: 1640 nM
TGI [56]: 5880 nM
GI50 [19]: 990 nM
TGI [19]: 4010 nM
